In PubChem BioAssay AID179 (DTP/NCI, 2004):
“And” between values parts separate entries of the source, which are not always exact repeats. Equal values may be shown once. The source made the active and inactive calls.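 Rule for the calls: active = compounds giving half or more protection of infected cells from virus-caused growth loss, again on retest; inactive = the rest.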

Test system: CEM cells HIV-1 protection, formazan growth assay
Assay: NCI AIDS Antiviral Assay
Conditions: for IC50: measured here: growth of uninfected CEM cells
How it was run: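 Category rules: moderately active means at least 50% protection on retest, and confirmed active means 100% protection reproducibly. The underlying data came from a formazan growth assay in HIV-1-infected CEM cells.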

SMILES | outcome | EC50 | IC50
C=CCCCN1C(=O)CCCC1=O | inactive | – | –
CC1c2c(n(C)c3ccccc23)C2CCC3(CO3)C1N2Cc1ccccc1 (configuration not stated) | inactive | – | –
CC(C)(/C=N\O)NO | – | > 200 µM | > 200 µM
O=C1OC(=C(Cl)Cl)C2C3c4ccccc4C(c4ccccc43)C12 (configuration not stated) | – | > 100 µM | 47.9 µM
CC(=O)NCCSSCc1ccccc1CS(=O)O | – | > 200 µM | 105 µM
O=[N+]([O-])c1ccc(NN=C(c2ccccc2)c2ccccc2)c([N+](=O)[O-])c1 | – | > 52.5 µM | > 52.5 µM
Cc1ccc([Si](O)(c2ccc(C)cc2)c2ccc(C)cc2)cc1 | – | > 200 µM | 12 µM
NC(=O)NCCCC(NC(=O)OCCCCCn1ccc(=O)[nH]c1=O)C(=O)O (configuration not stated) | – | > 100 µM | > 100 µM
CCC1S(=O)(=O)OCCOS1(=O)=O | – | > 1070 µM | 64.6 µM
Cc1ccc(N/N=C/C2=CC(C)(C)C(C#N)(C#N)C(O)=C2C#N)cc1 | – | > 200 µM | 6.61 µM
Cc1cn(CCCCOC(=O)NC(CCCN=C(N)N)C(=O)O)c(=O)[nH]c1=O (configuration not stated) | – | > 200 µM | > 200 µM
CC(C)CC(=O)[O-].CC(C)CC(=O)[O-].N.N.N.N.[Co+3].[O-][Cl+3]([O-])([O-])[O-] | inactive | – | –
Cn1c(=O)c2nc3c(=O)n(C)c(=O)n(CC(N)=O)c3nc2n(C)c1=O | – | > 200 µM | > 200 µM
CC1(C)C2CC(c3ccncc3)ON2C(C)(C)N1O (configuration not stated) | – | > 200 µM | > 200 µM
FC(F)(F)c1ccccc1C=NC12CC3CC(CC(C3)C1)C2 | – | > 30.9 µM | > 30.9 µM
Cc1nn(-c2ccc(S(=O)(=O)[O-])cc2)c([O-])c1N=[N+](C)c1ccc(-c2ccc(N=Nc3ccc4c(S(=O)(=O)[O-])cc(S(=O)(=O)[O-])c(N)c4c3[O-])c([O-])c2)cc1[O-].[Cu+2].[Cu+2].[Na+] | – | 6.76 µM | 120 µM
C[Si](C)(C)c1ccc(CC2(Cc3ccc([Si](C)(C)C)cc3)CCNC2)cc1 | – | > 5.01 µM | > 5.01 µM
CCCCCC1=CC(=O)C=C(OC)C12C(=O)Oc1cc(O)c(C(=O)O)c(CCCCC)c12 (configuration not stated) | – | > 562 µM | 77.6 µM
Cc1ccc(C)c(COCCOCn2cc(Br)c(N)nc2=O)c1 | – | > 200 µM | > 200 µM
CCCCCCCCCCCCCC(=O)NCC(OCC)OCC | inactive | – | –
OCCN1CCN(CCCN2c3ccccc3Sc3ccc(C(F)(F)F)cc32)CC1 | – | > 200 µM | 10.2 µM
O=C(Nc1ccccn1)Nc1cc(C(F)(F)F)ccc1Cl | – | > 200 µM | 182 µM

SMILES | outcome | EC50 | IC50
CC1=C(C(=O)Nc2ccc([N+](=O)[O-])cc2)C(c2cccc([N+](=O)[O-])c2)C(C(=O)Nc2ccc([N+](=O)[O-])cc2)=C(C)N1 | – | > 4.9 µM | > 4.9 µM
CC1CCCC(C)N1Cc1cccnc1 (configuration not stated) | inactive | – | –
O=[N+]([O-])c1cc(F)ccc1S(=O)(=O)c1ccccc1 | – | > 200 µM | 35.5 µM
c1ccc2c(N3CC3)nncc2c1 | – | > 200 µM | > 200 µM
Cc1nc(C(N)=O)c(N)n1CCN1CCN(C(=O)CCCCCCCCCCNC2N=CNc3nc[nH]c32)CC1 (configuration not stated) | inactive | – | –
COc1cc(CSc2ccc(O)cc2)cc(OC)c1OC | – | > 200 µM | 33.1 µM
CSC1=NN(C)C2(CCCCC2)C(=O)N1 | – | 13.8 µM | 575 µM
O=C(/C=C/c1cccs1)c1ccccc1Cl | – | > 200 µM | 11.2 µM
Cc1nn(C(=O)Cc2ccccc2)c2c1C(c1ccc(O)cc1)SC(N)=N2 (configuration not stated) | – | 83.2 µM | > 200 µM
Cc1nnc(-n2c(O)cc(=O)n(-c3ccccc3)c2=S)nc1/C=C/c1ccc(N(C)C)cc1 | – | > 100 µM | 5.62 µM
Nc1ccccc1[S][Sn]([c]1ccccc1)([c]1ccccc1)[c]1ccccc1 | – | > 2 µM | 0.324 µM
COc1ccc2nccc3c2c1NC(Cl)=C3 | – | > 200 µM | 1.58 µM
COc1ccc(C(=C(Cl)c2ccccc2)c2ccc(OC)cc2)cc1 | – | > 200 µM | 47.9 µM
Cc1ccc(Nc2nnc(CSc3ccc(Cl)cc3)s2)c(S(=O)(=O)O)c1 | – | > 200 µM | 148 µM
COc1ccc2nc(NC(=O)C(=O)NNC(=O)c3ccncc3)sc2c1 | – | > 174 µM | 16.2 µM
S=C1SC2(CCCCCC2)NC2=C1CCCCC2 | – | > 25.7 µM | 15.8 µM
O=C(N(O)c1ccccc1Cl)C(O)(c1ccccc1)c1ccccc1 | – | > 20 µM | > 20 µM
COC(=O)C(C(=O)C(=O)Nc1ccccc1C(C)=O)c1nc2ccc(Cl)cc2[nH]c1=O (configuration not stated) | – | > 58.9 µM | > 58.9 µM
Cc1nc(C(N)=S)sc1/C(CC(=O)C(=O)Nc1cccc2ccc(O)cc12)=N\NC(=O)c1ccncc1 | – | > 35.5 µM | > 35.5 µM
O=C(Nc1ccccc1)N1CC2(CN1)CNN(C(=O)Nc1ccccc1)C2 | – | > 182 µM | > 182 µM
Cc1cc(=O)oc2cc(O/C(=C\c3ccccc3)c3nc4ccccc4c(=O)o3)ccc12 | inactive | – | –
COc1ccc(C2CC(c3c(C)nn(-c4ccccc4)c3-c3ccc(C)cc3O)=NN2c2ccccc2)cc1 (configuration not stated) | – | > 200 µM | 12.9 µM

SMILES | outcome | EC50 | IC50
C=CCNC(=S)N/C=C(\C#N)c1nc2ccccc2s1 | – | > 200 µM | > 200 µM
COC(=O)CCSC(=O)Nc1ccccc1Cl | inactive | – | –
COc1ccc(C(c2ccc3cccnc3c2O)c2oc(CO)cc(=O)c2O)cc1 (configuration not stated) | inactive | – | –
CCC(C)c1c(N)o[nH]c1=O (configuration not stated) | – | > 200 µM | > 200 µM
CC1OC(OC2C(O[C@H]3CC[C@@]4(C)C(=CC[C@H]5[C@@H]6C[C@@H]7O[C@]8(CC[C@@H](C)CO8)[C@@H](C)[C@@H]7[C@@]6(C)CC[C@@H]54)C3)OC(CO)C(O)C2OC2OC(CO)C(O)C(O)C2O)C(O)C(O)C1O (some centres not stated) | – | > 200 µM | 1.17 µM
O=[N+]([O-])c1ccc(/C=C/c2cc(-c3ccccc3)nc3ccc4ccccc4c23)cc1 | – | > 200 µM | > 200 µM
CC1=NC(=O)C(C)(c2ccccc2)N1CCc1ccccc1 (configuration not stated) | – | > 200 µM | 45.7 µM
CCN(CC)C(=O)c1cccc2cccc(OC)c12 | inactive | – | –
COC(=O)c1c(C)cccc1/C=C1\Cc2ccc(C)c(C)c2C1=O | – | > 200 µM | > 200 µM
NCC1OC(OC2C(CO)OC(OC3C(O)C(N)CC(N)C3OC3OC(CO)C(O)C(O)C3N)C2O)C(N)C(O)C1O (configuration not stated) | inactive | – | –
CCC1CC2CC3c4[nH]c5ccc(OC)cc5c4CCN(C2)C13 (configuration not stated) | inactive | – | –
CCOC(=O)[C@H]1Nc2ccc(C)cc2C2c3ccccc3CC21 (some centres not stated) | – | > 17 µM | > 17 µM
Nc1nc(N)nc(-c2cnc3ccccc3c2)n1 | – | > 200 µM | > 200 µM
CC(=O)/C(=C\c1ccccc1)C(=O)Nc1ccccc1 | – | > 38 µM | > 38 µM
OC1NC2CC3NC(O)C(O)NC3CC2NC1O (configuration not stated) | – | > 100 µM | > 100 µM
CC(C1=C(O)c2ccccc2C(=O)C1=O)C1=C(O)c2ccccc2C(=O)C1=O | – | > 200 µM | 50.1 µM
CC1=C(C#N)S(=O)(=O)c2c(oc(C)c2C)N1 | – | > 200 µM | > 200 µM
O=c1cc(O)cc2n1CCC2 | – | > 1660 µM | > 1660 µM
Fc1cccc(F)c1C1SCc2nc3ccccc3n21 (configuration not stated) | – | – | 41.7 µM and 56.2 µM
C[C@@H](NC(=O)c1ccccc1SC(=O)OCC[n+]1ccccc1)C(N)=O | – | 2.82 µM | > 200 µM
COc1ccc(Cc2nccc3cc(OC)c(OC)cc23)cc1 | – | > 72.4 µM | 69.2 µM
